Experimental data published in article PMC7203576 (Frontiers in Microbiology, 2020).
Where “and” joins values, the source holds several entries; their conditions need not be identical. Equal entries are not always repeated. Where two headings read alike, the source gives them in different places. Marks after values point to notes of the source that are not given here.

Tests used:
[1] = tested on: Magnaporthe oryzae Triticum (MoT) on detached wheat leaves cv. BARI Gom 24 (Prodip); settings: in vivo
[2] = tested on: Magnaporthe oryzae Triticum (MoT) isolate BTJP 4 (5)
[3] = tested on: Magnaporthe oryzae Triticum (MoT) conidia; settings: 50 μg/ml; for Conidia with abnormally swollen (deformed) germ tubes: after 12 h

Gageopeptide C
Average lesion length of wheat blast on detached leaves [1]: 1.8 ± 0.1 mm | Activity against MoT [2]: Active | Minimum inhibitory concentration (MIC) on mycelial growth [2]: 2.5 μg/disk | Morphology of treated hyphae (microscopy) [2]: extensive branching, irregular growth, and swelling in MoT hyphae | Mycelial growth inhibition at the MIC [2]: 42.9 ± 1.6% | Percent inhibition of radial growth (PIRG) of mycelia [2]: 58.1 ± 0.9% and 54.3 ± 1.6% and 49.5 ± 0.9% | Germinated conidia (% ± SE) ([3]; 0 h): 0 ± 0^f % | Major morphological change/developmental transitions in the treated conidia ([3]; 0 h): No germination | Major morphological change/developmental transitions in the treated conidia ([3]; 6 h): Germinated with a short germ tube | Major morphological change/developmental transitions in the treated conidia ([3]; 12 h): Deformed germ tube (swollen) | Major morphological change/developmental transitions in the treated conidia ([3]; 24 h): 30% Normal appressoria and 11% abnormal appressoria (low melanization) formed but no mycelial growth took place | Conidia with abnormally swollen (deformed) germ tubes [3]: 10 ± 1.5% | Conidia producing abnormal appressoria (low melanization) ([3]; after 24 h): 11 ± 0.7% and 11% | Conidia producing normal appressoria ([3]; after 24 h): 30 ± 0.7% and 30%

Gageotetrin B
Average lesion length of wheat blast on detached leaves [1]: 1.5 ± 0.1 mm | Activity against MoT [2]: Active | Minimum inhibitory concentration (MIC) on mycelial growth [2]: 1.5 μg/disk | Morphology of treated hyphae (microscopy) [2]: coarse, loss of radial growth, and irregular swelling on the tips | Mycelial growth inhibition at the MIC [2]: 22.9 ± 1.6% | Percent inhibition of radial growth (PIRG) of mycelia [2]: 60.9 ± 2.5% and 59 ± 0.9% and 51.4 ± 1.7% | Germinated conidia (% ± SE) ([3]; 0 h): 0 ± 0^f % | Major morphological change/developmental transitions in the treated conidia ([3]; 0 h): No germination | Major morphological change/developmental transitions in the treated conidia ([3]; 6 h): Germinated with a short germ tube | Major morphological change/developmental transitions in the treated conidia ([3]; 12 h): Deformed germ tube (swollen) | Major morphological change/developmental transitions in the treated conidia ([3]; 24 h): Abnormal appressoria formed; no mycelial growth took place | Conidia with abnormally swollen (deformed) germ tubes [3]: 41 ± 3.8%

Gageopeptide B
Average lesion length of wheat blast on detached leaves [1]: 1.6 ± 0.2 mm | Activity against MoT [2]: Active | Minimum inhibitory concentration (MIC) on mycelial growth [2]: 10.0 μg/disk and 10 μg/disk | Morphology of treated hyphae (microscopy) [2]: swelling of hyphal cells, hyper-branching, loss of apical growth, and swelling of hyphal tips | Mycelial growth inhibition at the MIC [2]: 11.5 ± 1.6% | Percent inhibition of radial growth (PIRG) of mycelia [2]: 54.3 ± 3.3% | Germinated conidia (% ± SE) ([3]; 0 h): 0 ± 0^f % | Major morphological change/developmental transitions in the treated conidia ([3]; 0 h): No germination | Major morphological change/developmental transitions in the treated conidia ([3]; 6 h): Germinated with a short germ tube | Major morphological change/developmental transitions in the treated conidia ([3]; 12 h): Deformed germ tube (swollen) | Major morphological change/developmental transitions in the treated conidia ([3]; 24 h): No appressoria formed; no mycelial growth took place | Conidia with abnormally swollen (deformed) germ tubes [3]: 51 ± 2.1%
